How the values were obtained:
Format in all cases: cell-based
CCRF-CEM = experiment: NCI single dose screening (10 µM); conditions: Homo sapiens, read-out: GI% (cell growth inhibition percentage)
K-562 = experiment: NCI single dose screening (10 µM); conditions: Homo sapiens, K562, read-out: GI% (cell growth inhibition percentage)
EKVX = experiment: NCI single dose screening (10 µM); conditions: Homo sapiens, read-out: GI% (cell growth inhibition percentage)
A549/ATCC = experiment: NCI single dose screening (10 µM); conditions: Homo sapiens, A549, read-out: GI% (cell growth inhibition percentage)
HOP-92 = experiment: NCI single dose screening (10 µM); conditions: Homo sapiens, HOP-92, read-out: GI% (cell growth inhibition percentage)
HOP-62 = experiment: NCI single dose screening (10 µM); conditions: Homo sapiens, HOP-62, read-out: GI% (cell growth inhibition percentage)
NCI-H460 = experiment: NCI single dose screening (10 µM); conditions: Homo sapiens, NCI-H460, read-out: GI% (cell growth inhibition percentage)
HCC-2998 = experiment: NCI single dose screening (10 µM); conditions: Homo sapiens, HCC 2998, read-out: GI% (cell growth inhibition percentage)
SW-620 = experiment: NCI single dose screening (10 µM); conditions: Homo sapiens, SW-620, read-out: GI% (cell growth inhibition percentage)
HCT-116 = experiment: NCI single dose screening (10 µM); conditions: Homo sapiens, HCT-116, read-out: GI% (cell growth inhibition percentage)
HT-29 = experiment: NCI single dose screening (10 µM); conditions: Homo sapiens, HT-29, read-out: GI% (cell growth inhibition percentage)
KM12 = experiment: NCI single dose screening (10 µM); conditions: Homo sapiens, KM12, read-out: GI% (cell growth inhibition percentage)
SF-539 = experiment: NCI single dose screening (10 µM); conditions: Homo sapiens, SF-539, read-out: GI% (cell growth inhibition percentage)
SF-268 = experiment: NCI single dose screening (10 µM); conditions: Homo sapiens, SF-268, read-out: GI% (cell growth inhibition percentage)
U251 = experiment: NCI single dose screening (10 µM); conditions: Homo sapiens, U-251, read-out: GI% (cell growth inhibition percentage)
MALME-3M = experiment: NCI single dose screening (10 µM); conditions: Homo sapiens, Malme-3M, read-out: GI% (cell growth inhibition percentage)
LOX IMVI = experiment: NCI single dose screening (10 µM); conditions: Homo sapiens, read-out: GI% (cell growth inhibition percentage)
M14 = experiment: NCI single dose screening (10 µM); conditions: Homo sapiens, M14, read-out: GI% (cell growth inhibition percentage)
UACC-257 = experiment: NCI single dose screening (10 µM); conditions: Homo sapiens, UACC-257, read-out: GI% (cell growth inhibition percentage)
NCI/ADR-RES = experiment: NCI single dose screening (10 µM); conditions: Homo sapiens, read-out: GI% (cell growth inhibition percentage)
OVCAR-3 = experiment: NCI single dose screening (10 µM); conditions: Homo sapiens, OVCAR-3, read-out: GI% (cell growth inhibition percentage)
OVCAR-4 = experiment: NCI single dose screening (10 µM); conditions: Homo sapiens, OVCAR-4, read-out: GI% (cell growth inhibition percentage)
ACHN = experiment: NCI single dose screening (10 µM); conditions: Homo sapiens, read-out: GI% (cell growth inhibition percentage)
SN12C = experiment: NCI single dose screening (10 µM); conditions: Homo sapiens, read-out: GI% (cell growth inhibition percentage)
RXF 393 = experiment: NCI single dose screening (10 µM); conditions: Homo sapiens, RXF 393, read-out: GI% (cell growth inhibition percentage)
UO-31 = experiment: NCI single dose screening (10 µM); conditions: Homo sapiens, UO-31, read-out: GI% (cell growth inhibition percentage)
MCF7 = experiment: NCI single dose screening (10 µM); conditions: Homo sapiens, MCF7, read-out: GI% (cell growth inhibition percentage)
BT-549 = experiment: NCI single dose screening (10 µM); conditions: Homo sapiens, BT-549, read-out: GI% (cell growth inhibition percentage)
MDA-MB-231/ATCC = experiment: NCI single dose screening (10 µM); conditions: Homo sapiens, MDA-MB-231, read-out: GI% (cell growth inhibition percentage)
MDA-MB-468 = experiment: NCI single dose screening (10 µM); conditions: Homo sapiens, MDA-MB-468, read-out: GI% (cell growth inhibition percentage)
T-47D = experiment: NCI single dose screening (10 µM); conditions: Homo sapiens, T47D, read-out: GI% (cell growth inhibition percentage)
[1] = test system: NCI-55 cancer cell line panel; experiment: NCI single dose screening (10 µM), whole panel; conditions: Homo sapiens, read-out: Mean inhibition, % (mean GI%)

| Compound | inhibition at 10 µM (CCRF-CEM) [%] | inhibition at 10 µM (K-562) [%] | inhibition at 10 µM (EKVX) [%] | inhibition at 10 µM (A549/ATCC) [%] | inhibition at 10 µM (HOP-92) [%] | inhibition at 10 µM (HOP-62) [%] | inhibition at 10 µM (NCI-H460) [%] | inhibition at 10 µM (HCC-2998) [%] | inhibition at 10 µM (SW-620) [%] | inhibition at 10 µM (HCT-116) [%] | inhibition at 10 µM (HT-29) [%] | inhibition at 10 µM (KM12) [%] | inhibition at 10 µM (SF-539) [%] | inhibition at 10 µM (SF-268) [%] | inhibition at 10 µM (U251) [%] | inhibition at 10 µM (MALME-3M) [%] | inhibition at 10 µM (LOX IMVI) [%] | inhibition at 10 µM (M14) [%] | inhibition at 10 µM (UACC-257) [%] | inhibition at 10 µM (NCI/ADR-RES) [%] | further results |
| --- | --- | --- | --- | --- | --- | --- | --- | --- | --- | --- | --- | --- | --- | --- | --- | --- | --- | --- | --- | --- | --- |
| CCCN1C(=O)/C(=N\NC(=O)c2oc3ccccc3c2C)c2ccccc21 [Compound 7b] | < 10 | 11.4 | 32.4 | < 10 | < 10 | 18.1 | 15.6 | < 10 | < 10 | < 10 | < 10 | < 10 | < 10 | < 10 | < 10 | < 10 | < 10 | < 10 | < 10 | 10.3 | inhibition at 10 µM (OVCAR-3): < 10%; inhibition at 10 µM (OVCAR-4): < 10%; inhibition at 10 µM (ACHN): 11.6%; inhibition at 10 µM (SN12C): < 10%; inhibition at 10 µM (RXF 393): < 10%; inhibition at 10 µM (UO-31): 34.3%; inhibition at 10 µM (MCF7): 25%; inhibition at 10 µM (BT-549): < 10%; inhibition at 10 µM (MDA-MB-231/ATCC): 29%; inhibition at 10 µM (MDA-MB-468): < 10%; inhibition at 10 µM (T-47D): 23.8%; inhibition at 10 µM [1]: 5.18% |
| Cc1c(C(=O)N/N=C2\C(=O)N(Cc3ccccc3)c3ccccc32)oc2ccccc12 [Compound 7d] | < 10 | < 10 | 30.2 | < 10 | 12.6 | 20.8 | 25 | < 10 | 11.2 | < 10 | < 10 | < 10 | < 10 | < 10 | < 10 | < 10 | 13.8 | < 10 | < 10 | 10.2 | inhibition at 10 µM (OVCAR-3): < 10%; inhibition at 10 µM (OVCAR-4): < 10%; inhibition at 10 µM (ACHN): 13.3%; inhibition at 10 µM (SN12C): < 10%; inhibition at 10 µM (RXF 393): < 10%; inhibition at 10 µM (UO-31): 33.6%; inhibition at 10 µM (MCF7): 16.7%; inhibition at 10 µM (BT-549): < 10%; inhibition at 10 µM (MDA-MB-231/ATCC): 18.3%; inhibition at 10 µM (MDA-MB-468): < 10%; inhibition at 10 µM (T-47D): 33.3%; inhibition at 10 µM [1]: 6.01% |
| CCCN1C(=O)/C(=N\NC(=O)c2oc3ccccc3c2C)c2cc(Br)ccc21 [Compound 7g] | < 10 | < 10 | 18.1 | < 10 | < 10 | < 10 | < 10 | < 10 | < 10 | < 10 | < 10 | < 10 | < 10 | < 10 | < 10 | 16 | < 10 | < 10 | < 10 | < 10 | inhibition at 10 µM (OVCAR-3): < 10%; inhibition at 10 µM (OVCAR-4): < 10%; inhibition at 10 µM (ACHN): < 10%; inhibition at 10 µM (SN12C): < 10%; inhibition at 10 µM (RXF 393): < 10%; inhibition at 10 µM (UO-31): 21.9%; inhibition at 10 µM (MCF7): 13.2%; inhibition at 10 µM (BT-549): < 10%; inhibition at 10 µM (MDA-MB-231/ATCC): < 10%; inhibition at 10 µM (MDA-MB-468): < 10%; inhibition at 10 µM (T-47D): < 10%; inhibition at 10 µM [1]: -0.8% |
